Assay [1] addresses T1, LRAT (Bos taurus, UniProt Q9BGL2).
T1 construct: microsomal fraction isolated from bovine retinal pigment epithelial cells; from tissue; host or cells: bovine retinal pigment epithelial cells, microsomal fraction
T1 sequence (Q9BGL2 1-230): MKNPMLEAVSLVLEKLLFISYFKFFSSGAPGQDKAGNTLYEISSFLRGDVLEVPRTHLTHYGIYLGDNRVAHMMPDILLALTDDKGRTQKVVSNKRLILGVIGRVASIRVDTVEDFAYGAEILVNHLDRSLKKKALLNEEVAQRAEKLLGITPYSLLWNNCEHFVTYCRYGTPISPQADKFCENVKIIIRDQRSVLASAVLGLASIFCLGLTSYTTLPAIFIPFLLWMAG
The assay is described as follows: In vitro microsomal esterification of retinol, LRAT catalyzed (retinyl laurate formation). The format is biochemical, bovine. The settings on record: for inhibition at 10 µM: Table B.
Method: A solution containing 0.1M sodium phosphate pH 7 buffer, 5 mM dithiothreitol, 2 mg/ml bovine serum albumin, 40 micromolar palmitoyl CoA, 40 micromolar dilauroyl phosphatidyl choline, 10 micromolar retinol and a test compound or a solvent blank, is incubated for 1 hour at 37° C. with a microsomal fraction isolated from bovine retinal pigment epithelial cells. After incubation, the reaction was quenched by addition of an equal volume of ethanol, and the retinyl esters formed (retinyl laurate from the LRAT catalyzed reaction and retinyl palmitate from ARAT catalyzed reaction) are extracted with hexane.
A solution containing 0.1M sodium phosphate pH 7 buffer, 5 mM dithiothreitol, 2 mg/ml bovine serum albumin, 40 micromolar palmitoyl CoA, 40 micromolar dilauroyl phosphatidyl choline, 10 micromolar retinol and a test compound or solvent blank, was incubated for 1 hour at 37° C. with a microsomal fraction isolated from bovine retinal pigment epithelial cells. After incubation, the reaction was quenched by addition of an equal volume of ethanol, and the retinyl esters formed (retinyl palmitate from the ARAT catalyzed reaction, and retinyl laurate from the LRAT catalyzed reaction) were extracted with hexane.
The compounds in Table A were tested at a 100 μM concentration.

Assay [2] has as its system keratinocytes. Description: Transglutaminase assay and keratinocyte differentiation, TGase normalized to DNA (Example 1B). The format is cell-based, Human. The settings on record: for keratinocyte differentiation / transglutaminase level (in words): […]10^-7 M, […]10^-8 M and […]10^-9 M, vs ethanol control; for mean TGase/DNA × 10^-4 ± s.d: 72 hours, n = 3. The method, then: (§1) Human keratinocytes, isolated from neonatal foreskin by trypsin treatment were grown in Dulbecco Modification Eagle (DME) Hams F12 (1:1) medium/10% fetal calf serum in the presence of irradiated 3T3 mouse fibroblasts for establishing dividing keratinocyte colonies. Cells were grown under the above condition until their second passage and kept frozen for future use. Frozen second passage keratinocytes were thawed and plated into the above medium and grown for five days before they were switched to a serum-free MCDB 153-based medium keratinocyte growth medium (KGM) from Clonetics Corporation, San Diego, Calif., containing 0.15 mM Ca, or keratinocyte serum-free media (KSFM) from GIBCO containing 0.09 mM Ca). On day 7, when the cells were 80-90% confluent, they were trypsinized and plated in the serum-free medium for the various experiments.
(§2) During the process of terminal differentiation in the epidermis, a 15 nm thick layer of protein, known as the cornified envelope (CE) is formed on the inner surface of the cell periphery. The CE is composed of numerous distinct proteins which have been cross-linked together by the formation of N ^ε -(γ-glutamyl) lysine isodipeptide bonds catalyzed by the action of at least two different transglutaminases (TGases) expressed in the epidermis. TGase I is expressed in abundance in the differentiated layers of the epidermis, especially the granular layer, but is absent in the undifferentiated basal epidermis. Thus TGase I is a useful marker of epidermal keratinocyte differentiation with high TGase I levels indicating a more differentiated state. An ELISA based TGase I assay, using a TGase I antibody, was used to assess the state of differentiation of the cultured keratinocytes in the examples that follow.
Keratinocytes (cultured as described above) were plated in 96 well plates at a density of 3,000 cells per well in 200 μl media. After incubation for four days the media was changed to media containing test compounds (six replicates per test). The cells were cultured for a further 72 hours after which time the media was aspirated and the plates stored at -70° C. Plates were removed from the freezer, and the cells washed with PBS. 100 μl sterile water was added and the cells were freeze fractured by freezing at -70° C. then thawing. The cells were incubated for one hour at room temperature (R/T) with PBS/3% BSA (wash buffer, bovine serum albumin), then rinsed with a fresh aliquot of wash buffer. Cells were incubated with 50 μl of primary antibodies monoclonal anti-human transglutaminase mouse antibody (IgG) obtained from Biomedical Industries diluted 1:2,000 in wash buffer for one hour, 37° C. then rinsed two times with wash buffer. Cells were then incubated with 50 μl of secondary antibody (Fab fragment, peroxidase conjugated anti-mouse IgG obtaining from Amersham) diluted 1:4,000 in wash buffer for one hour at 37° C., then rinsed two times with wash buffer. […] The absorbance of samples was read at 492 nm in the plate reader. […] TGase levels were determined by subtracting background from the readings from each treatment and determining mean±s.d. for the replicates exposed to both Ab.
The level of TGase-1 detected after treatment of the cells could be influenced by cell number, i.e., the greater the number of cells the greater the level of TGase-1 detected. […]

The test system of assay [3] is keratinocytes. Description: 3H-Thymidine incorporation and keratinocyte proliferation (Example 1A). The format is cell-based, Human. As to conditions: for mean Thymidine incorp./μg protein ± s.d: 24 hours, n = 3. As for the experimental part:
as §1
The incorporation of ^3 H-thymidine by cultured keratinocytes was used as an assay of keratinocyte proliferation. Thymidine is one of four deoxynucleosides which are the monomeric units of DNA, the universal library of genetic information in the animal kingdom. Prior to cell division of a somatic cell such as a keratinocyte, the complete genome of the cell undergoing cell division is replicated. This involves large scale DNA synthesis by the cell and enables both daughter cells to receive identical copies of the genetic material. When ^3 H-thymidine is included in the culture media of keratinocytes which are synthesizing DNA in preparation for cell division then the labelled nucleoside is incorporated into the newly synthesized DNA. The extent of incorporation of ^3 H-thymidine into a population of cells is proportional to the rate of DNA synthesis by this population of cells and therefore an indication of their cellular proliferation.
Keratinocytes (that were cultured as described above) were plated in 24 well plates at a density of about 20,000 cells per well in 1 ml media. After incubation for four days or until the cells were 60-70% confluent, the media was changed. Test compounds were added (in triplicate) to the wells 24 hours after the media change, and four hours later 1μCi ^3 H-Thymidine in 50 μl media was added per well. Cells were incubated for a further 24 hours. Media was removed from the cells, 10% ice cold trichloroacetic acid (TCA) added and plates were incubated on ice for 30 minutes. Cells were washed five times with 5% TCA and allowed to dissolve in 500 μl 0.1M NaOH for at least one hour (usually overnight). The preparations were neutralized with 0.1M HCl; 50 μl of the cell preparation was used to determine total protein content. Disintegrations per minute (DPM) from ^3 H labelling of DNA was determined by liquid scintillation counting of 900 μl of the cell preparation. Thymidine incorporation results were expressed as DPM/μg protein.
A general note: Dividing cells build labelled thymidine or BrdU into new DNA.

Assay [4] concerns keratinocytes. Description: Transglutaminase assay, keratinocyte differentiation (Example 4), normalized to DNA. The settings on record: for activity at […]: .00025 mM; for effect on transglutaminase / keratinocyte differentiation (in words): Table D, both experiments; for activity at 1000 µM: 1 mM. The format is cell-based, Human. The method, then:
as §1, §2
Keratinocytes (cultured as described above) were plated in 96 well plates at a density of 3,000 cells per well in 200 μl of cell culture media. After incubation for four days, the media was changed to media containing test compounds (six replicates per test). The cells were cultured for a further 72 hours after which time the media was aspirated and the plates stored at -70° C. After the plates were removed from the freezer, the cells were further freezed fractured by freezing and thawing and then washed 3× with PBS. The cells were incubated for one hour at room temperature (R/T) with TBS/5% BSA buffer. Cells were then incubated with 100 μl of monoclonal anti-human transglutaminase (IgG) mouse antibody (primary antibody) obtained from Biomedical Technologies Inc. diluted 1:2000 in TBS/1% BSA buffer for two hours at 37° C., and then rinsed six times with wash buffer (TBS/1% BSA/0.05% Tween-20). Cells were next incubated with 100 μl of Fab fragment, peroxidase conjugated anti-mouse IgG antibody (secondary antibody) from Amersham diluted 1:4,000 in wash buffer for two hours at 37° C. and then rinsed three times with wash buffer and three times with PBS. Cells were incubated with substrate solution (4 mg o-phenylene diamine and 3.3 μl 30% H2 O2 in 10 mL 0.1M citrate buffer, pH 5.0) for five minutes at R/T and in darkness (under aluminum foil). The reaction was stopped by the addition of 50 μl 4N H2SO4. The absorbance of samples was read at 492 nm in the plate reader. Out of the six replicates, four were treated with both antibodies, two were treated only with the secondary antibody (i.e., to determine the background binding of the enzyme conjugated antibody). Transglutaminase I levels were determined by subtracted background from the readings from each treatment and determining the mean s.d. for the replicates exposed to both antibodies.
The level of TGase-1 detected after treatment of the cells could be influenced by cell number, i.e., the greater the number of cells the greater the level of TGase-1 detected. The level of TGase-1 was normalized to DNA content of the cells in the same well thus eliminating variation due to differences in cell number. […]

The mark [5] stands for this setting: Homo sapiens, Keratinocyte, Experiment 2, read-out: Transglutaminase level, % CONTROL.

Read-outs that look alike come from different tables or passages of the source.

For orientation: inhibition means the change of the read-out against control, counted positive when it falls. Low readings indicate little suppression, high ones strong suppression.

As to `C=CCCC(=O)/C=C/C1C(C)=CCCC1(C)C` (stereo not drawn) [allyl alpha ionone], in assay [1], testing at 10 µM gave an inhibition of 17%.

For `CC(C)[C@@H]1CC[C@@H](C)CC1=O` [mentone], the “% INHIBITION, LRAT” value in assay [1] (Table C (comparative), 100 μM) is reported as 0%.

In the case of `CC1=C(/C=C/C(C)=C/C=C/C(C)=C/CO)C(C)(C)CCC1` [Retinol], the “keratinocyte differentiation / transglutaminase level (in words)” value in assay [2] is listed as “The decrease in transglutaminase level was dose dependent”. In addition, the “mean TGase/DNA × 10^-4 ± s.d” value in assay [2] ([…] 10^-7 M) was 1.14 ± 0.22 × 10^-4; in assay [2] ([…] 10^-8 M), 1.89 ± 0.30 × 10^-4; in assay [2] ([…] 10^-9 M) it was 2.70 ± 0.59 × 10^-4. For the same compound, the “mean Thymidine incorp./μg protein ± s.d” value in assay [3] ([…] 10^-7 M) was determined as 2218 ± 73 DPM/μg protein; in assay [3] ([…] 10^-8 M), 2034 ± 46 DPM/μg protein; in assay [3] ([…] 10^-9 M), 1977 ± 19 DPM/μg protein. Besides, in assay [4] (Homo sapiens, Keratinocyte, Experiment 1, .001 mM, read-out: Transglutaminase level, % CONTROL), the activity at 1 µM came to 67%. Further, the activity at […] in assay [4] (setting [5]) was found to be 63.5%. Further, the “effect on transglutaminase / keratinocyte differentiation (in words)” value in assay [4] is on record as “not very effective”.

As to `CC1=C(/C=C/C(C)=C/C=C/C(C)=C/C(=O)O)C(C)(C)CCC1` [Retinoic acid], the “keratinocyte differentiation / transglutaminase level (in words)” value in assay [2] is “decreased keratinocyte differentiation”. The “keratinocyte proliferation (in words)” value in assay [3] ([…]10^-7 M, […]10^-8 and […]10^-9 M, over ethanol control and each retinol treatment) was “significantly increased keratinocyte proliferation”. Moreover, the “mean Thymidine incorp./μg protein ± s.d” value in assay [3] ([…] 10^-7 M) is 2475 ± 116 DPM/μg protein; in assay [3] ([…] 10^-8 M), 2686 ± 72 DPM/μg protein; in assay [3] ([…] 10^-9 M) it was 2556 ± 80 DPM/μg protein. In addition, the activity at […] is 24% in assay [4] (Homo sapiens, Keratinocyte, read-out: Transglutaminase level, % CONTROL, Experiment 1) and 8% in assay [4] (Homo sapiens, Keratinocyte, read-out: Transglutaminase level, % CONTROL, Experiment 2).

On to `C=C1CCCC(C)(C)C1/C=C/C(=O)CC` (stereo not drawn) [gamma methyl ionone], for which at 100 µM the inhibition in assay [1] (Table A, 100 μM) was 38%.

Turning to `C/C=C/C(=O)C1C(C)=CC=CC1(C)C` (stereo not drawn) [damascenone], in assay [1] (Table A, 100 μM), the inhibition at 100 µM turned out to be 79%. The compound also gave an inhibition at 10 µM in assay [1] of 29%.

In assay [1] (Table A, 100 μM), `CCCC(O)CCC1C(C)CCCC1(C)C` (stereo not drawn) [timberol] showed an inhibition at 100 µM of 33%.

Take `CC(=O)CCC1C(C)=CCCC1(C)C` (stereo not drawn) [dihydro alpha ionone]: 100 µM produced 18% inhibition in assay [1] (Table C (comparative), 100 μM).

Take `C/C=C/C(=O)C1C(C)=CCCC1(C)C` (stereo not drawn) [alpha damascone]: the activity at 1000 µM in assay [4] (Homo sapiens, Keratinocyte, Experiment 1, read-out: Transglutaminase level, % CONTROL) was 92%; in assay [4] (setting [5]), 86%. For the same compound, the “effect on transglutaminase / keratinocyte differentiation (in words)” value in assay [4] was “not very effective”.

The record behind these values is US5759556A, “Skin care compositions containing certain cyclic aliphatic unsaturated compounds and retinol or retinyl ester” (Chesebrough-Pond's USA Co., Division of Conopco, Inc., priority 1996, dated 1998).
